Laboratory results from patent US5288624A, “Cercosporal fungicide compositions and methods of use” (priority 1987, dated 1994).
Converted amounts (≈) assume the structure as drawn.

Assays:
Botrytis = assay: Combination with herbicides, Botrytis agar plate test; assay type: cell-based, Botrytis cinerea; details: herbicide applied singly
Staphylococcus aureus = details: Matsueda et al.; cited from earlier work
Bacillus subtilis = details: Matsueda et al.; cited from earlier work
Pseudomonas aeruginosa = details: Matsueda et al.; cited from earlier work
E. coli = details: Matsueda et al.; cited from earlier work
Candida japonica = details: Matsueda et al.; cited from earlier work
certain microorganisms = details: Matsueda et al. 1980; cited from earlier work
Microsporum canis = assay: Effect of the fungicide on dermatophytes (agar incorporation); assay type: cell-based; details: 120 h, pH 7.1, 25°, 5 days, read-out: Minimum Inhibitory Concentration, MIC
Experimental: (§1) These were recent clinical isolates and were cultivated at 25° C. on agar containing the following ingredients in grams per liter:
(§2) Mycelia from the 3 fungi were disintegrated with sterile glass beads in sterile water and 1 drop applied to the center petri dishes containing the same agar as above but to which was added Phaeoramularia fungicide. The fungicide was added at a concentration of from 0.5 μg/ml to 5 μg/ml of the eluate described under "Extraction of the active principle." Griseofulvin was used in comparison. Controls were prepared with the same agar but devoid of fungicide. Five (5) replicates were made for each test.

T. mentagrophytes = assay: as above; assay type: cell-based; details: Trichophyton mentagrophytes, 120 h, pH 7.1, 25°, 5 days, read-out: Minimum Inhibitory Concentration, MIC
Experimental: as §1, §2

Trichophyton rubrum = assay: as above; assay type: cell-based; details: 120 h, pH 7.1, 25°, 5 days, read-out: Minimum Inhibitory Concentration, MIC
Experimental: as §1, §2

CCNc1nc(Cl)nc(NC(C)C)n1 [Atrazine]
effect of herbicide on Botrytis (Botrytis): no effect

COc1nc(C)nc(NC(=O)NS(=O)(=O)c2ccccc2Cl)n1 [Chlorsulfuron]
effect of herbicide on Botrytis (Botrytis): no effect

CCNc1nc(Cl)nc(NCC)n1 [Simazine]
effect of herbicide on Botrytis (Botrytis): no effect

COc1c(CC(C)O)c2c3c(CC(C)O)c(OC)c(=O)c4c(O)cc5c(c6c(cc(O)c(c1=O)c62)OCO5)c43 (stereo not drawn) [cercosporin]
inhibition of growth (Staphylococcus aureus): inhibit the growth | inhibition of growth (Bacillus subtilis): inhibit the growth | inhibition of growth (Pseudomonas aeruginosa): inhibit the growth | inhibition of growth (E. coli): inhibit the growth | inhibition of growth (Candida japonica): inhibit the growth | inhibitory effect on certain microorganisms (certain microorganisms): inhibitory effect

COC1=CC(=O)C[C@@H](C)[C@]12Oc1c(Cl)c(OC)cc(OC)c1C2=O [griseofulvin]
MIC (Microsporum canis): 3 µg/mL (≈ 8.5 µM) | MIC (T. mentagrophytes): 10 µg/mL (≈ 28.3 µM) | MIC (Trichophyton rubrum): 1.5 µg/mL (≈ 4.25 µM)
